Measurements taken from patent publication US20080200436A1 (priority 2004, published 2008).

Experiments:
VEGF RTK = conditions: cited from earlier work
LNCaP tumour xenografts = assay: LNCaP Human Prostate Cancer Xenograft Model; assay type: in vivo, Swiss nude mice; conditions: for tumour volume versus orchiectomy and control groups: P<0.001 versus each group
Experimental: Six to eight-week-old Swiss nude mice were given one injection in the anterior flank with 5×10^6 tumour cells suspended in 0.1 ml of serum-free medium with the addition of 100 μl of Matrigel. Once tumours were established, mice were randomized into control and treatment groups.
Mice were examined twice a week, and tumours were measured with calipers across the greatest two diameters. At the time of euthanasia, tumours were removed by dissection away from adjacent organs and structures and weighed on an analytical balance. For histologic analysis, tissue samples were fixed in 10% neutral buffered formalin and processed through graded ethanols and xylenes for paraffin embedding and staining using standard methods. For calculation of percent necrosis, 5 random fields per tumour were examined at low power (10×) from tumours harvested at 40 days. The necrotic area(s) in each field was/were circumscribed electronically using the tools available in the ImagePro computerized image analysis package (Media Cybernetics) to create an area. A human operator carried out this identification and circling of the necrotic area for all analyzed issues. Using the total area of the section as the denominator, the percentage of necrosis was evaluated for each field. To obtain an average for a whole experimental tumour group, the percent necrosis for each field was averaged across the total number of tumours in the group.
Repeated measure models were used for the analysis of the in vivo tumour volumes. Several covariance structures, including AR- 1 and random coefficient models, were used and all yielded similar conclusions. The analyses reported herein are based on a random coefficient model with robust estimates of the covariance matrix. Specific comparisons between treatment groups were made using F-test based on contrasts. Statistical analyses were carried out in SAS PROC MIXED; the plots were prepared in GAUSS 5.0. Error bars represent one standard error from the mean. Time from treatment initiation to the time that tumour volumes exceeded a cut-off value (a tumour volume of >300 mm^3) were estimated with Kaplan-Meier curves and compared across treatment groups with the log-rank test. Tumour volume cut-offs were used to avoid using a survival endpoint, which would have involved significant animal distress and to employ a threshold that was appropriate for comparing the tumour growth data across all groups.

COc1cc2c(Nc3ccc(Br)cc3F)ncnc2cc1OCC1CCN(C)CC1 [ZD6474, 4-(4-bromo-2-fluoroanilino)-6-methoxy-7-(1-methylpiperidin-4-ylmethoxy)quinazoline]
inhibition of VEGF RTK (VEGF RTK): potent inhibitor | delay before tumour growth resumed after compound withdrawal (LNCaP tumour xenografts; ZD6474 alone 50 mg/kg/day for 40 days, then withdrawn, normal mice): approximately 15 days | tumour volume versus orchiectomy and control groups (LNCaP tumour xenografts; ZD6474 alone 50 mg/kg/day, after 38 days of treatment): significant differences in tumour volume | tumour volume versus orchiectomy group (LNCaP tumour xenografts; ZD6474 alone 50 mg/kg/day, days 13 to 38 post-treatment, P<0.05): Statistically significant differences | percentage of necrosis (LNCaP tumour xenografts; ZD6474 alone, 50 mg/kg/day once daily p.o., normal mice, tumours harvested at day 40, 5 tumours, vehicle control 31±7%): 48±5% | percentage of necrosis (LNCaP tumour xenografts; combination of orchiectomy and ZD6474 50 mg/kg/day, tumours harvested at day 40, versus 51±5% in monotherapy, P=0.01): 73±6% | tumour volume versus orchiectomy and control groups (LNCaP tumour xenografts; combination therapy group (ZD6474 50 mg/kg/day plus orchiectomy), after 38 days): significant differences were observed | rate of tumour growth after ZD6474 withdrawal versus untreated tumours (LNCaP tumour xenografts; previously ZD6474 treated tumours, delay of approximately 15 days taken into account): no significant difference
